Test results as given in patent US20140275257A1, “N-ACETYL CYSTEINE COMPOSITIONS IN THE TREATMENT OF SYSTEMIC LUPUS ERYTHEMATOSUS” (Foundation for the State University of New York, priority 2013, published 2014).

What was measured:
Format in all cases: in vivo, human
[1] = tested on: mTOR; assay: mTOR activity by phosphorylation of S6 ribosomal protein (pS6-RP) in T-cell subsets; conditions: for pS6-RPhi T cells in the DN T-cell compartment: baseline 22.5±3.7%
Procedure: mTOR activity was assessed by phosphorylation of its downstream substrate S6 ribosomal protein (pS6-RP) using a monoclonal antibody to pS6-RP (Cell Signaling; Beverly, Mass.; Cat. No. 4851) in cells permeabilized with Cytofix/CytopermPlus (BD Biosciences). […] FIG. 4A: Assessment of pS6-RP in CD3^+, CD4^+, CD8^+, and DN T cells from control (blue histograms) and lupus donors (red histograms). Blue/red values show the percentage of cell populations with increased mTOR activity in control and lupus T-cell subsets, respectively. FIG. 4B: Cumulative analysis of mTOR activity in T-cell subsets of all lupus patients relative to all healthy controls. Values represent mean±SEM of cell populations with increased mTOR activity. p values reflect comparison of lupus and healthy donors with unpaired two-tailed t-test before treatment. FIG. 4C: Effect of NAC on mTOR activity measured by the prevalence of pS6-RP^hi T cells in lupus patients exposed to all doses considered together. p values reflect comparison to pre-treatment visit 1 using two-tailed paired t-test. FIG. 4D: Effect of NAC on CD3/CD28-induced mTOR activity in T cell subsets of lupus patients exposed to all doses considered together.

[2] = tested on: lupus T cells; assay: Flow cytometry of mitochondrial transmembrane potential, mitochondrial mass, H2O2 and NO in T cells of treated SLE patients
Text: Cell viability was monitored with annexin V conjugated to fluorescein isothiocyanate (annexin V-FITC conjugate), annexin V conjugated to phycoerythrin (annexin V-PE conjugate), or annexin V conjugated to fluorochrome Cy5 (Annexin V-Cy5 conjugate) matched with emission spectra of propidium iodide (PrI) to detect Annexin V+/PrI− apoptotic cells. Mitochondrial transmembrane potential (ΔΨm) was monitored with mitochondrial potentiometric dyes such as 3,3′-dihexyloxacarbocyanine iodide ((DiOC6), using an excitation wavelength of […] and emission at 488 nm, recorded at 525 nm in the FL-1 (green fluorescence) channel); and tetramethylrhodamine, methyl ester ((TMRM), using an excitation wavelength of […], and emission at 543 nm, recorded at 567 nm in the FL-2 (yellow/orange fluorescence) channel), potential-insensitive mitochondrial dyes such as MitoTracker Green-FM (MTG, 100 nM; excitation: 490 nm, emission: 516 nm recorded in FL-1) or nonyl acridine orange (NAO, 50 nM; excitation: 490 nm, emission: 540 nm recorded in FL-1), superoxide sensing hydroethidine (HE, 1 μM) and H2O2-sensing dichlorofluorescein diacetate (DCF-DA, 1 μM), nitric oxide sensor 4-amino-5-methylamino-2′,7′-difluoroflourescein diacetate (DAF-FM, 1 μM, excitation: 495, emission: 515 nm recorded in FL-1), or cytosolic probes (Fluo-3, 1 μM, excitation: 506 nm, emission: 526 nm recorded in FL-1) and mitochondrial Ca^2+-sensitive fluorescent probes (Rhod-2, 1 μM), respectively.
All metabolic and mitochondrial sensor dyes were obtained from Invitrogen (Carlsbad, Calif.) and used as earlier described in Fernandez, D. R. et al., “Activation of mTOR controls the loss of TCR in lupus T cells through HRES-1/Rab4-regulated lysosomal degradation,” J. Immunol., 182: 2063-2073 (2009); Banki, K. et al., “Glutathione Levels and Sensitivity to Apoptosis Are Regulated by changes in Transaldolase expression,” J. Biol. Chem., 271: 32994-33001 (1996); Banki, K. et al., “Elevation of mitochondrial transmembrane potential and reactive oxygen intermediate levels are early events and occur independently from activation of caspases in Fas signaling,” J. Immunol., 162: 1466-1479 (1999); Nagy, G. et al., “T cell activation-induced mitochondrial hyperpolarization is mediated by Ca^2+- and redox-dependent production of nitric oxide,” J. Immunol., 171: 5188-5197 (2003); and Perl, A. et al., “Apoptosis and mitochondrial dysfunction in lymphocytes of patients with systemic lupus erythematosus,” In: Perl, A., editor. Autoimmunity: Methods and Protocol. 1 ed. Totowa, N.J.: Humana; 2004 p. 87-114, the entire disclosures of each of which are incorporated by reference herein.
NO production (FIG. 3D: DAF-FM fluorescence), and mitochondrial mass were measured in T cell subsets following CD3/CD28 stimulation for 16 h (FIG. 3E: NAO fluorescence). FIG. 3F: Spontaneous apoptosis rate was enumerated by the percentage of Ann V+/PrI− T cells after culture for 16 h. FIG. 3G: Activation-induced apoptosis was assessed following CD3/CD28 co-stimulation for 16 h. Visits: visit 1, before 1st NAC dose; visit 2, after 1-month treatment; visit 3, after 2-month treatment; visit 4, after 3-month treatment; visit 5, after 1-month washout.

[3] = tested on: GSH in peripheral blood lymphocytes (PBL); assay: HPLC assay of GSH in peripheral blood lymphocytes (PBL) of SLE patients
Procedure: Reduced glutathione (GSH) was measured by reverse phase ion-exchange HPLC using UV detection at 365 nm, as described in Gergely, P. J. et al., “Mitochondrial hyperpolarization and ATP depletion in patients with systemic lupus erythematosus,” Arth. Rheum., 46: 175-190 (2002); and Hanczko, R. et al., “Prevention of hepatocarcinogenesis and acetaminophen-induced liver failure in transaldolase-deficient mice by N-acetylcysteine,” J. Clin. Invest., 119: 1546-1557 (2009). The disclosures of each of these references are incorporated by reference herein in their entirety.
GSH was measured in whole blood and peripheral blood lymphocytes (PBL) before (visit 1; 0 h) and after the first NAC/placebo dose (visit 1; 3 h and 6 h) and upon each monthly follow-up visit (visits 2-4: between 9-11 am after having taken the last NAC/placebo capsule 8 pm the night before), and after 1 month wash-out (visit 5). HPLC analysis required ˜0.25 ml of whole blood and 5×10^6 PBL which were obtained from a total of 10 ml of blood collected at each time point.

[4] = Double Negative (DN) T cells after 3-month NAC treatment, declined after washout

Which results are given for `CC(=O)N[C@@H](CS)C(=O)O` [NAC, N-acetyl-L-cysteine]?
pS6-RPhi T cells in the DN T-cell compartment ([1]; after 2 months, p=0.0104): 16.9±2.5%; pS6-RPhi T cells in the DN T-cell compartment ([1]; after 3 months, p=0.0095): 16.4±2.4%; pS6-RPhi T cells in the DN T-cell compartment ([1]; after 4 months, p=0.0009): 12.1±2.4%; CD3/CD28-induced mTOR activation ([1]; all T cells after 2 months and 3 months, rebounded after washout): diminished; Mitochondrial mass ([2]; DN T cells following CD3/CD28 co-stimulation): robustly increased; H2O2 levels [2, 4]: increased; Mitochondrial mass [2, 4]: increased; production of NO ([2]; after 3 months, p=0.002): 1.61±0.17 fold; Δψm (mitochondrial transmembrane potential) ([2]; all T cells, p=0.0001): increased; GSH in PBL ([3]; after 3-month treatment with NAC doses 2 and 3 considered together (visit 4; p=0.027)): increased; GSH in PBL ([3]; after one month washout, NAC dose 3 or doses 2 and 3 combined): dropped below baseline; GSH in PBL ([3]; single NAC dose of 1.2 g, after 6 h (p=0.022)): increased; GSH in PBL ([3]; single NAC dose of 2.4 g, after 3 h (p=0.032) and 6 h (p=0.003)): increased
